Measurements reported in US9260388B2, “Process for preparing alkyl pyroglutamic acids” (DOW GLOBAL TECHNOLOGIES LLC, priority 2011, dated 2016).

Columns and labels:
Format in all cases: physicochemical
[1] = Water solubility of sodium salts; details: for pH: pH of the sodium salt solution after neutralization
Method: Selected N-alkyl pyroglutamic acids are converted into their sodium salt by neutralizing them in water with sodium hydroxide. In general, a known amount of sample is placed in a vial and a known amount of water is added. Sample is neutralized with 25 wt % sodium hydroxide in water until pH is >7. Mild heating (50° C.) is applied when necessary to aid dissolution. The final mass is recorded. The weight percent of the solution is determined by mass of the sodium salt over the total mass of solution, and multiplying by 100. The pH of the solution is recorded after neutralization. No effort was done to prepare a saturated solution.

[2] = Shake foam test (foam height); details: sodium salt, 0.1 wt % solution, shaken 20 times, t=0, average of three replicates
Method: Foaming profile of the N-alkyl pyroglutamates are evaluated using a shake foam test, and evaluated against sodium laureth sulfate. For each sample, a 0.1 wt % solution is prepared by diluting 50 mg active to 50 g in water. The 0.1 wt % solution is added to a 100 mL graduated cylinder and capped. The cylinder is shaken by hand 20 times, each time the cylinder is inverted and brought back to an upright position. Foam height (in mL) is defined as the highest point of the top layer of the foam in the graduated cylinder. If the top of the foam was not flat, the midpoint of the top of the foam was reported. Foam height is read immediately after the solution settled (t=0). Three replicates are done for each sample, and the reported foam height (in mL) is the average reading of the three replicates.

[3] = Critical micelle concentration (Kibron CMC) and surface tension, Kibron Delta-8 multichannel microtensiometer; details: for Kibron CMC: sodium salt in water, twelve two-fold dilutions starting at 1 wt %; for Surface Tension (1%): sodium salt, 1 wt % in water
Method: The critical micelle concentration (Kibron CMC) and surface tension of the N-alkyl pyroglutamic acids (as Na^+ salts) and related commercial surfactants were evaluated. For each sample, a total of twelve dilutions starting at 1 wt % were prepared, reducing the concentration in each dilution by half by taking an aliquot of the previous dilution and adding the same amount of water. The surface tension of all 12 dilutions was measured using a Kibron Delta-8 multichannel microtensiometer. Sample volume for each analysis was 50 μL.

pH [1]	Shake Foam t = 0 [2]	Kibron CMC [3]	Surface Tension (1%) [3]	Solubility ([1]; sodium salt in water, neutralized with NaOH, no saturated solution prepared)	SMILES
10.0	36 mL	625 ppm	38 Dynes/cm		CCC(CCCC(C)CCCC(C)C)CCN1C(=O)CCC1C(=O)O (stereo not shown) [Example 1]
7.1	29 mL	78 ppm	29 Dynes/cm	15.4 wt %	CCCCCCCCCCC(CCCCCCCC)CN1C(=O)CCC1C(=O)O (stereo not shown) [Example 4]
7.3	11 mL	>10000 ppm	34 Dynes/cm		CCCCCC(CCC)CN1C(=O)CCC1C(=O)O (stereo not shown) [Example 2]
